In US20020111314A1, “Novel stimulation of gene expression and protein synthesis of heat shock protein 72/73 (Hsp 70)” (The Trustees of Columbia University, priority 1995, published 2002):
Square brackets hold non-standard residues; d marks the D form. Peptide text beside a SMILES is read from it. Nle = CCCC[C@H](N)C(=O)O

What was measured:
[1] = tested on: proteasomes; settings: Rock, et al., 1994; cited from earlier work
[2] = tested on: human microvascular endothelial cell line; experiment: TCA-cpm measurement in human microvascular endothelial cell line; assay type: cell-based; settings: 4 hours ALLN 40 μg/ml
[3] = tested on: Hsp70; experiment: Hsp70 turnover (pulse-chase) in HepG2 cells; assay type: cell-based, human
Method: FIGS. 4A-4B: Effects of ALLN on Hsp70 turnover and synthesis rates in HepG2 cells. Confluent culture dishes were preincubated for 4 hours with serum-free MEM containing either 1.5% BSA alone (Control) or BSA plus 40 μg/ml of ALLN (ALLN). (A) The preincubated cells were radiolabeled with 3H-leucine (150 μCi/ml) in serum-free, leucine-free medium with/without ALLN for 20 min., washed 3 times with medium free of isotope and then chased in serum-free medium containing BSA with/without ALLN for up to 20 hours. At the indicated time points, cells were harvested and lysed. Samples were immediately stored in a −80° C. freezer. Immunoprecipitation of Hsp70 was performed as described in FIG. 1. […]
FIGS. 8A-8C: Effects of ALLN on Hsp70 synthesis and turnover rates in HepG2 cells. […] Immunoprecipitates were analyzed on SDS-PAGE and fluorography (A) and also aliquoted for scintillation counting (B). […]
Since ALLN is a cysteine protease inhibitor, the possibility that protection of Hsp70 from proteolytic degradation accounted for the sharp increase in Hsp70 induced by ALLN was tested (Rock, et al., 1994; Ward, et al., 1995; Hiwasa, et al., 1990; Inoue, et al., 1991; and Sakata, et al., 1993). To determine whether ALLN stabilizes Hsp70, the turnover rate of radiolabeled Hsp70 in the presence or absence of ALLN (40 μg/ml) was measured in a pulse-chase experiment. […]

[4] = tested on: hsp70, i.e. hsp72, mRNA; experiment: Northern blot of hsp70 (hsp72) mRNA in HepG2 cells; assay type: cell-based, human; settings: ALLN 40 μg/ml, 4 hours at 37° C.
Method: After 4 hours treatment at 37° C., cells were harvested. (B). […] The total RNA was prepared, and equal amounts of the samples were loaded and run on a 1% formaldehyde-agarose gel, blotted onto a nylon membrane, and subsequently hybridized with specific synthetic oligonucleotide probes for hsp70 mRNA as described under Experimental Details. The position of 28S and 18S rRNA are shown for reference.
Equal amounts of tRNA samples (10 μg) were size-fractionated on a 1% agarose-formaldehyde gel according to the methods described (Maniatis, et al., 1982) and transferred to a piece of QIAGEN plus nylon membrane. To determine loading and transfer efficiency, RNA was stained with ethidium bromide before and after transfer. The membrane was baked for 30 min. at 80° C. in vacuo (a vacuum) followed by UV cross-linking. It was then incubated for 4 hours at 65° C. in a prehybridization mixture containing 10% dextran sulfate, 1% SDS, 1M sodium chloride, 50 mM Tris-HCl (pH 7.5) and 100 μg/ml denatured salmon sperm DNA. […] The membrane was then washed four times with 2×SSC, 0.1% SDS at room temperature, one time at 65° C. for 30 min., and one time at room temperature again for 5 min., and finally rinsed with 2×SSC at room temperature.

In the case of CCCC[C@@H](C=O)NC(=O)[C@H](CC(C)C)NC(=O)[C@H](CC(C)C)NC(C)=O [ALLN, N-acetyl-leucyl-leucyl-norleucinal] (Ac-Leu-Leu-[Nle]-aldehyde), the inhibition of proteasomes [1] is given as “potent inhibitors”, the TCA-cpm measurement [2] is given as “no change” and the “increase in the half-life of Hsp70” value ([3]; ALLN 40 μg/ml vs without ALLN) is given as 3-4 fold. The “half life of newly synthesized Hsp70 in the presence of ALLN” value ([3]; ALLN 40 μg/ml, pulse-chase) was “about 6 hours” and the “amount of hsp70, i.e. hsp72, mRNA” value [4] was “increased dramatically”.
